Experimental data published in patent US10588317B2, “Isoxazoline-substituted benzamides and analogues as insecticides” (priority 2015, dated 2020).

How the values were obtained:
Type in all cases: in vivo
Euschistus heros = Euschistus heros (neotropical brown stink bug), sprayed soybean leaves; details: 120 h, application rate 200 ppm, N2 nymphs, 5 days after infestation, read-out: effect in at least one of the two categories (mortality or growth inhibition)
Method in brief: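 Soybean leaves on agar sprayed with aqueous dilutions of DMSO stocks, dried, then infested with N2 nymphs. Mortality and growth inhibition scored against untreated samples 5 days after infestation; application rate 200 ppm.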

Spodoptera littoralis [1] = assay: Spodoptera littoralis (Egyptian cotton leaf worm), sprayed cotton leaf discs; details: foliar, 72 h, application rate 200 ppm, L1 larvae, 3 days after infestation, read-out: control (mortality, anti-feeding effect, growth inhibition)
Method in brief: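 Cotton leaf discs on agar sprayed with aqueous test solutions made from 10'000 ppm DMSO stock; after drying, infested with five L1 larvae. Mortality, anti-feeding and growth inhibition scored versus untreated samples 3 days after infestation; control counted when any category exceeds untreated.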

Thrips tabaci = Thrips tabaci (onion thrips): feeding/contact activity; details: 144 h, application rate 200 ppm, Thrips population of mixed ages, 6 days after infestation, read-out: mortality
Description: (§1) Sunflower leaf discs were placed on agar in 24-well microtiter plates and sprayed with aqueous test solutions prepared from 10'000 ppm DMSO stock solutions. After drying the leaf discs were infested with a Thrips population of mixed ages. The samples were assessed for mortality 6 days after infestation.

Spodoptera littoralis [2] = assay: Spodoptera littoralis (Egyptian cotton leaf worm), uptake by lettuce roots from agar; details: 144 h, read-out: effect in at least one of the three categories (mortality, anti-feeding, or growth inhibition)
Method in brief: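 Compound from 10'000 ppm DMSO stocks was mixed into agar, and lettuce grew on it for 7 days to take it up via roots. Cut leaves were infested with Spodoptera eggs; mortality, anti-feedant effect and growth inhibition scored 6 days later versus untreated samples.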

Tetranychus urticae = Tetranychus urticae (two-spotted spider mite): feeding/contact activity; details: 192 h, application rate 200 ppm, mixed population (mobile stages), 8 days after infestation, read-out: mortality
Description: as §1, with “Bean” for “Sunflower”, “discs” for “discs were placed”, “were” for “and”, “mite” for “Thrips”, “on mixed population (mobile stages) 8” for “6”

Myzus persicae = Myzus persicae (green peach aphid): feeding/contact activity; details: 144 h, application rate 200 ppm, aphid population of mixed ages, 6 days after infestation, read-out: mortality
Description: Sunflower leaf discs were placed onto agar in a 24-well microtiter plate and sprayed with aqueous test solutions prepared from 10'000 ppm DMSO stock solutions. After drying, the leaf discs were infested with an aphid population of mixed ages. The samples were assessed for mortality 6 days after infestation.

Diabrotica balteata = Diabrotica balteata (corn root worm), sprayed maize sprouts; details: 96 h, application rate 200 ppm, L2 larvae, 4 days after infestation, read-out: effect in at least one of the two categories (mortality or growth inhibition)
Method in brief: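 Maize sprouts on agar sprayed with aqueous dilutions of DMSO stocks, dried, then infested with L2 larvae (6–10 per well). Mortality and growth inhibition scored against untreated controls 4 days after infestation, at 200 ppm application rate.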

Plutella xylostella = Plutella xylostella (diamond back moth), artificial diet; details: 120 h, application rate 200 ppm, L2 larvae, 5 days after infestation, read-out: effect in at least one of the two categories (mortality or growth inhibition)
Method in brief: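 Artificial diet in 24-well plates treated with aqueous test solutions made from 10'000 ppm DMSO stocks, dried, then infested with L2 larvae (10 to 15 per well). Mortality and growth inhibition scored against untreated samples 5 days after infestation; activity cut-off at least 80% in either category at 200 ppm.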

CNS(=O)(=O)N1CC(NC(=O)c2ccc(C3=NO[C@@](c4cc(Cl)c(F)c(Cl)c4)(C(F)(F)F)C3)cc2C)CO1 (some centres unmarked) [Compound A70]
≥ 80%: percent effect (mortality or growth inhibition) at 200 ppm (Euschistus heros) | mortality at 200 ppm (Spodoptera littoralis [1]) | mortality at 200 ppm (Thrips tabaci) | percent control (mortality, anti-feedant effect or growth inhibition) at 12.5 ppm (Spodoptera littoralis [2]) | mortality at 200 ppm (Tetranychus urticae) | mortality at 200 ppm (Myzus persicae) | percent effect (mortality or growth inhibition) at 200 ppm (Diabrotica balteata) | percent effect (mortality or growth inhibition) at 200 ppm (Plutella xylostella)

CCN(C)S(=O)(=O)N1C[C@@H](NC(=O)c2ccc(C3=NO[C@@](c4cc(Cl)c(Cl)c(Cl)c4)(C(F)(F)F)C3)cc2C)CO1 [Compound A72, N-[(4R)-2-[ethyl(methyl)sulfamoyl]isoxazolidin-4-yl]-2-methyl-4-[(5S)-5-(3,4,5-trichlorophenyl)-5-(trifluoromethyl)-4H-isoxazol-3-yl]benzamide]
≥ 80%: percent effect (mortality or growth inhibition) at 200 ppm (Euschistus heros) | mortality at 200 ppm (Spodoptera littoralis [1]) | mortality at 200 ppm (Thrips tabaci) | percent control (mortality, anti-feedant effect or growth inhibition) at 12.5 ppm (Spodoptera littoralis [2]) | mortality at 200 ppm (Tetranychus urticae) | mortality at 200 ppm (Myzus persicae) | percent effect (mortality or growth inhibition) at 200 ppm (Diabrotica balteata) | percent effect (mortality or growth inhibition) at 200 ppm (Plutella xylostella)

CCN(C)S(=O)(=O)N1CC(NC(=O)c2ccc(C3=NO[C@@](c4cc(Cl)c(Cl)c(Cl)c4)(C(F)(F)F)C3)cc2C)CO1 (stereo partly drawn) [Compound A73, N-[2-[ethyl(methyl)sulfamoyl]isoxazolidin-4-yl]-2-methyl-4-[(5S)-5-(3,4,5-trichlorophenyl)-5-(trifluoromethyl)-4H-isoxazol-3-yl]benzamide]
≥ 80%: percent effect (mortality or growth inhibition) at 200 ppm (Euschistus heros) | mortality at 200 ppm (Spodoptera littoralis [1]) | mortality at 200 ppm (Thrips tabaci) | percent control (mortality, anti-feedant effect or growth inhibition) at 12.5 ppm (Spodoptera littoralis [2]) | mortality at 200 ppm (Tetranychus urticae) | mortality at 200 ppm (Myzus persicae) | percent effect (mortality or growth inhibition) at 200 ppm (Diabrotica balteata) | percent effect (mortality or growth inhibition) at 200 ppm (Plutella xylostella)

Cc1cc(C2=NO[C@@](c3cc(Cl)cc(C(F)(F)F)c3)(C(F)(F)F)C2)ccc1C(=O)N[C@H]1CON(S(C)(=O)=O)C1 [Compound A75]
≥ 80%: percent effect (mortality or growth inhibition) at 200 ppm (Euschistus heros) | mortality at 200 ppm (Spodoptera littoralis [1]) | mortality at 200 ppm (Thrips tabaci) | percent control (mortality, anti-feedant effect or growth inhibition) at 12.5 ppm (Spodoptera littoralis [2]) | mortality at 200 ppm (Tetranychus urticae) | mortality at 200 ppm (Myzus persicae) | percent effect (mortality or growth inhibition) at 200 ppm (Diabrotica balteata) | percent effect (mortality or growth inhibition) at 200 ppm (Plutella xylostella)

CCOC(=O)N(C)S(=O)(=O)N1CC(NC(=O)c2ccc(C3=NO[C@@](c4cc(Cl)c(F)c(Cl)c4)(C(F)(F)F)C3)cc2C)CO1 (some centres unmarked) [Compound A76]
≥ 80%: percent effect (mortality or growth inhibition) at 200 ppm (Euschistus heros) | mortality at 200 ppm (Spodoptera littoralis [1]) | mortality at 200 ppm (Thrips tabaci) | percent control (mortality, anti-feedant effect or growth inhibition) at 12.5 ppm (Spodoptera littoralis [2]) | mortality at 200 ppm (Tetranychus urticae) | mortality at 200 ppm (Myzus persicae) | percent effect (mortality or growth inhibition) at 200 ppm (Diabrotica balteata) | percent effect (mortality or growth inhibition) at 200 ppm (Plutella xylostella)

Cc1cc(C2=NO[C@@](c3cc(Cl)c(F)c(Cl)c3)(C(F)(F)F)C2)ccc1C(=O)NC1CON(S(=O)(=O)N(C)C(=O)c2cccnc2)C1 (some centres unmarked) [Compound A78]
≥ 80%: percent effect (mortality or growth inhibition) at 200 ppm (Euschistus heros) | mortality at 200 ppm (Spodoptera littoralis [1]) | mortality at 200 ppm (Thrips tabaci) | percent effect (mortality, anti-feeding or growth inhibition) at 12.5 ppm (Spodoptera littoralis [2]; test rate 12.5 ppm, eggs, 6 days after infestation) | mortality at 200 ppm (Tetranychus urticae) | mortality at 200 ppm (Myzus persicae) | percent effect (mortality or growth inhibition) at 200 ppm (Diabrotica balteata) | percent effect (mortality or growth inhibition) at 200 ppm (Plutella xylostella)

Cc1cc(C2=NO[C@@](c3cc(Cl)c(F)c(Cl)c3)(C(F)(F)F)C2)ccc1C(=O)NC1CON(S(=O)(=O)N(C)C#N)C1 (stereo partly drawn) [Compound A81, N-[2-[cyano(methyl)sulfamoyl]isoxazolidin-4-yl]-4-[(5S)-5-(3,5-dichloro-4-fluoro-phenyl)-5-(trifluoromethyl)-4H-isoxazol-3-yl]-2-methyl-benzamide]
≥ 80%: percent effect (mortality or growth inhibition) at 200 ppm (Euschistus heros) | mortality at 200 ppm (Spodoptera littoralis [1]) | mortality at 200 ppm (Thrips tabaci) | percent control (mortality, anti-feedant effect or growth inhibition) at 12.5 ppm (Spodoptera littoralis [2]) | mortality at 200 ppm (Tetranychus urticae) | mortality at 200 ppm (Myzus persicae) | percent effect (mortality or growth inhibition) at 200 ppm (Diabrotica balteata) | percent effect (mortality or growth inhibition) at 200 ppm (Plutella xylostella)

C=CCN(C)S(=O)(=O)N1CC(NC(=O)c2ccc(C3=NO[C@@](c4cc(Cl)c(Cl)c(Cl)c4)(C(F)(F)F)C3)cc2C)CO1 (stereo partly drawn) [Compound A82, N-[2-[allyl(methyl)sulfamoyl]isoxazolidin-4-yl]-2-methyl-4-[(5S)-5-(3,4,5-trichlorophenyl)-5-(trifluoromethyl)-4H-isoxazol-3-yl]benzamide]
≥ 80%: percent effect (mortality or growth inhibition) at 200 ppm (Euschistus heros) | mortality at 200 ppm (Spodoptera littoralis [1]) | mortality at 200 ppm (Thrips tabaci) | percent control (mortality, anti-feedant effect or growth inhibition) at 12.5 ppm (Spodoptera littoralis [2]) | mortality at 200 ppm (Tetranychus urticae) | mortality at 200 ppm (Myzus persicae) | percent effect (mortality or growth inhibition) at 200 ppm (Diabrotica balteata) | percent effect (mortality or growth inhibition) at 200 ppm (Plutella xylostella)

Cc1cc(C2=NO[C@@](c3cc(Cl)c(Cl)c(Cl)c3)(C(F)(F)F)C2)ccc1C(=O)NC1CON(S(=O)(=O)N(C)CC#N)C1 (stereo partly drawn) [Compound A87, N-[2-[cyanomethyl(methyl)sulfamoyl]isoxazolidin-4-yl]-2-methyl-4-[(5S)-5-(3,4,5-trichlorophenyl)-5-(trifluoromethyl)-4H-isoxazol-3-yl]benzamide]
≥ 80%: percent effect (mortality or growth inhibition) at 200 ppm (Euschistus heros) | mortality at 200 ppm (Spodoptera littoralis [1]) | mortality at 200 ppm (Thrips tabaci) | percent control (mortality, anti-feedant effect or growth inhibition) at 12.5 ppm (Spodoptera littoralis [2]) | mortality at 200 ppm (Tetranychus urticae) | mortality at 200 ppm (Myzus persicae) | percent effect (mortality or growth inhibition) at 200 ppm (Diabrotica balteata) | percent effect (mortality or growth inhibition) at 200 ppm (Plutella xylostella)

COCCN(C)S(=O)(=O)N1CC(NC(=O)c2ccc(C3=NO[C@@](c4cc(Cl)c(Cl)c(Cl)c4)(C(F)(F)F)C3)cc2C)CO1 (stereo partly drawn) [Compound A90, N-[2-[2-methoxyethyl(methyl)sulfamoyl]isoxazolidin-4-yl]-2-methyl-4-[(5S)-5-(3,4,5-trichlorophenyl)-5-(trifluoromethyl)-4H-isoxazol-3-yl]benzamide]
≥ 80%: percent effect (mortality or growth inhibition) at 200 ppm (Euschistus heros) | mortality at 200 ppm (Spodoptera littoralis [1]) | mortality at 200 ppm (Thrips tabaci) | percent control (mortality, anti-feedant effect or growth inhibition) at 12.5 ppm (Spodoptera littoralis [2]) | mortality at 200 ppm (Tetranychus urticae) | mortality at 200 ppm (Myzus persicae) | percent effect (mortality or growth inhibition) at 200 ppm (Diabrotica balteata) | percent effect (mortality or growth inhibition) at 200 ppm (Plutella xylostella)

Cc1cc(C2=NO[C@@](c3cc(Cl)cc(C(F)(F)F)c3)(C(F)(F)F)C2)ccc1C(=O)N[C@H]1CON(S(=O)(=O)N(C)C)C1 [Compound A91]
≥ 80%: percent effect (mortality or growth inhibition) at 200 ppm (Euschistus heros) | mortality at 200 ppm (Spodoptera littoralis [1]) | mortality at 200 ppm (Thrips tabaci) | percent control (mortality, anti-feedant effect or growth inhibition) at 12.5 ppm (Spodoptera littoralis [2]) | mortality at 200 ppm (Tetranychus urticae) | mortality at 200 ppm (Myzus persicae) | percent effect (mortality or growth inhibition) at 200 ppm (Diabrotica balteata) | percent effect (mortality or growth inhibition) at 200 ppm (Plutella xylostella)

CCNS(=O)(=O)N1CC(NC(=O)c2ccc(C3=NO[C@@](c4cc(Cl)c(F)c(Cl)c4)(C(F)(F)F)C3)cc2C)CO1 (some centres unmarked) [Compound A95]
≥ 80%: percent effect (mortality or growth inhibition) at 200 ppm (Euschistus heros) | mortality at 200 ppm (Spodoptera littoralis [1]) | mortality at 200 ppm (Thrips tabaci) | percent control (mortality, anti-feedant effect or growth inhibition) at 12.5 ppm (Spodoptera littoralis [2]) | mortality at 200 ppm (Tetranychus urticae) | mortality at 200 ppm (Myzus persicae) | percent effect (mortality or growth inhibition) at 200 ppm (Diabrotica balteata) | percent effect (mortality or growth inhibition) at 200 ppm (Plutella xylostella)

Cc1cc(C2=NO[C@@](c3cc(Cl)c(F)c(Cl)c3)(C(F)(F)F)C2)ccc1C(=O)NC1CON(S(=O)(=O)NC(C)(C)C)C1 (some centres unmarked) [Compound A97]
≥ 80%: percent effect (mortality or growth inhibition) at 200 ppm (Euschistus heros) | mortality at 200 ppm (Spodoptera littoralis [1]) | mortality at 200 ppm (Thrips tabaci) | percent control (mortality, anti-feedant effect or growth inhibition) at 12.5 ppm (Spodoptera littoralis [2]) | mortality at 200 ppm (Tetranychus urticae) | mortality at 200 ppm (Myzus persicae) | percent effect (mortality or growth inhibition) at 200 ppm (Diabrotica balteata) | percent effect (mortality or growth inhibition) at 200 ppm (Plutella xylostella)
